Measurements published in PubChem BioAssay AID1259408 (Genetic Toxicology Data Bank (GENE-TOX), 2018).
Calls of active or inactive are those of the source. No rule for the calls is given here.

System: GENE-TOX genotoxicity assays, various organisms and cells
Assay: GENE-TOX mutagenicity studies
Conditions: for call: Assay Type: In vivo carcinogenicity studies
[1] = Species/Cell Type: Chinese hamster ovary (CHO) cells, Assay Type: Forward gene mutation at the HPRT locus, Assay Code: CHO+, Evaluation Type: Evaluation B (Post-1980)
[2] = Species/Cell Type: Neurospora crassa, Assay Type: Forward gene mutation, Assay Code: NEF+, Evaluation Type: Evaluation A (Pre-1980)
[3] = Species/Cell Type: Saccharomyces cerevisiae, Assay Type: Mitotic recombination or gene conversion, Assay Code: YEC+, Evaluation Type: Evaluation A (Pre-1980)
[4] = Species/Cell Type: Salmonella typhimurium (one or more of the five standard strains: TA98, TA100, TA1535, TA1537, and TA1538), Assay Type: Histidine reverse gene mutation, Ames assay, Assay Code: SAL+*, Activation: With metabolic activation, Evaluation Type: Evaluation A (Pre-1980)
[5] = Species/Cell Type: Salmonella typhimurium (one or more of the five standard strains: TA98, TA100, TA1535, TA1537, and TA1538), Assay Type: Histidine reverse gene mutation, Ames assay, Assay Code: SALT, Evaluation Type: Evaluation A (Pre-1980)
[6] = Species/Cell Type: Nonhuman, Assay Type: Sister-chromatid exchange (SCE) in vitro, Assay Code: SC2+D, Dose Response: With dose response, Evaluation Type: Evaluation B (Post-1980)
[7] = Species/Cell Type: Chinese hamster lung (V79) cells, Assay Type: Forward gene mutation at the HPRT or ouabain locus, Assay Code: V79+, Evaluation Type: Evaluation A (Pre-1980)
[8] = Species/Cell Type: Nonhuman, Assay Code: CCG+L, Evaluation Type: Evaluation A (Pre-1980)
[9] = Species/Cell Type: Human, Assay Type: Sister-chromatid exchange (SCE) in vitro, Assay Code: SC1+D, Dose Response: With dose response, Evaluation Type: Evaluation B (Post-1980)
[10] = Species/Cell Type: Escherichia coli WP2, Assay Type: Tryptophan reverse gene mutation, Assay Code: WP2-, Evaluation Type: Evaluation A (Pre-1980)

Question: `Nc1ccc2ccccc2c1` was tested. Which mutagenic call [1] did it give?
Answer: active; positive

Question: And the mutagenic call (Species/Cell Type: Drosophila melanogaster, Assay Type: Sex-linked recessive lethal gene mutation, Assay Code: SRLT, Evaluation Type: Evaluation A (Pre-1980))?
Answer: no conclusion

Question: And the mutagenic call (Species/Cell Type: Escherichia coli polA (W3110 vs P3478), Assay Type: Rec-assay, DNA effects (bacterial DNA repair), Assay Code: RE2+, Evaluation Type: Evaluation A (Pre-1980))?
Answer: active; positive

Question: What about the mutagenic call (Species/Cell Type: Escherichia coli polA (W3119 vs P3478), Assay Type: Rec-assay, DNA effects (bacterial DNA repair), Assay Code: RE1-, Evaluation Type: Evaluation A (Pre-1980)) of the same molecule?
Answer: inactive; negative

Question: And the mutagenic call (Species/Cell Type: Escherichia coli polA (W3119 vs P3478), Assay Type: Rec-assay, DNA effects (bacterial DNA repair), Assay Code: RE1T, Evaluation Type: Evaluation A (Pre-1980))?
Answer: no conclusion

Question: What about the mutagenic call (Species/Cell Type: Fischer rat embryo (RLV/1706) cells, Assay Type: Cell transformation, viral enhanced, Assay Code: CTR+, Evaluation Type: Evaluation A (Pre-1980)) of the same molecule?
Answer: active; positive

Question: And the mutagenic call (Species/Cell Type: Mammalian polychromatic erythrocytes, Assay Type: Micronucleus test, chromosome aberrations, Assay Code: MNT+, Evaluation Type: Evaluation A (Pre-1980))?
Answer: active; positive

Question: And the mutagenic call (Species/Cell Type: Mouse (BALB/c-3T3) cells, Assay Type: Cell transformation, Assay Code: CTB-, Evaluation Type: Evaluation A (Pre-1980))?
Answer: inactive; negative

Question: What about the mutagenic call (Species/Cell Type: Mouse embryo (AKR/ME) cells, Assay Type: Cell transformation, Assay Code: CTK+, Evaluation Type: Evaluation A (Pre-1980)) of the same molecule?
Answer: active; positive

Question: And the mutagenic call (Species/Cell Type: Mouse, Sex: Male, Assay Type: Sperm morphology, Assay Code: SPI-, Evaluation Type: Evaluation A (Pre-1980))?
Answer: inactive; negative

Question: And the mutagenic call [2]?
Answer: active; positive

Question: And the call (Species/Cell Type: Nonhuman, Assay Code: CCG+, Evaluation Type: Evaluation A (Pre-1980))?
Answer: active; positive

Question: And the mutagenic call (Species/Cell Type: Nonhuman, Assay Type: Sister-chromatid exchange (SCE) in vitro, Assay Code: SC2+D*, Activation: With metabolic activation, Dose Response: With dose response, Evaluation Type: Evaluation B (Post-1980))?
Answer: active; positive

Question: What about the mutagenic call (Species/Cell Type: Nonhuman, Assay Type: Sister-chromatid exchange (SCE) in vivo, Assay Code: SC3+, Evaluation Type: Evaluation B (Post-1980)) of the same molecule?
Answer: active; positive

Question: What about the mutagenic call (Species/Cell Type: Saccharomyces cerevisiae, Assay Type: Forward gene mutation, Assay Code: YEF+*, Activation: With metabolic activation, Evaluation Type: Evaluation A (Pre-1980)) of the same molecule?
Answer: active; positive

Question: And the mutagenic call [3]?
Answer: active; positive

Question: What about the mutagenic call (Species/Cell Type: Saccharomyces cerevisiae, Assay Type: Mitotic recombination or gene conversion, Assay Code: YEH+*, Activation: With metabolic activation, Evaluation Type: Evaluation A (Pre-1980)) of the same molecule?
Answer: active; positive

Question: And the mutagenic call (Species/Cell Type: Saccharomyces cerevisiae, Assay Type: Mitotic recombination or gene conversion, Assay Code: YEH-, Evaluation Type: Evaluation A (Pre-1980))?
Answer: inactive; negative

Question: And the mutagenic call [4]?
Answer: active; positive

Question: And the mutagenic call (Species/Cell Type: Salmonella typhimurium, Assay Type: Forward and reverse gene mutation, host-mediated assay, Assay Code: HMA+, Evaluation Type: Evaluation A (Pre-1980))?
Answer: active; positive

Question: What about the mutagenic call (Species/Cell Type: Syrian hamster embryo (SA7/SHE) cells, Assay Type: Cell transformation, viral enhanced, Assay Code: CT7+, Evaluation Type: Evaluation A (Pre-1980)) of the same molecule?
Answer: active; positive

Question: And the mutagenic call (Species/Cell Type: Syrian hamster embryo (SHE) cells, Assay Type: Cell transformation, clonal assay, Assay Code: CTC+, Evaluation Type: Evaluation A (Pre-1980))?
Answer: active; positive

Question: What about the mutagenic call (Species/Cell Type: Tradescantia species, Assay Type: Gene mutation, Assay Code: TRM+D, Dose Response: With dose response, Evaluation Type: Evaluation A (Pre-1980)) of the same molecule?
Answer: active; positive

Question: `CN(C)CCC=C1c2ccccc2C2OC2c2ccccc21` (configuration not stated) was tested. Which mutagenic call [5] did it give?
Answer: no conclusion

Question: For `Cc1cc2ccccc2c2cc3ccccc3cc12`, which mutagenic call [6] is on record?
Answer: active; positive

Question: And the mutagenic call (Species/Cell Type: Nonhuman, Assay Type: Sister-chromatid exchange (SCE) in vitro, Assay Code: SC2-, Evaluation Type: Evaluation B (Post-1980))?
Answer: inactive; negative

Question: What about the mutagenic call [4] of the same molecule?
Answer: active; positive

Question: What does the source list for `CN1CCN(CCCN2c3ccccc3Sc3ccccc32)CC1`?
Answer: mutagenic call (Species/Cell Type: Human lymphocytes, Assay Type: Sister-chromatid exchange (SCE) in vitro, Assay Code: SCLT, Evaluation Type: Evaluation B (Post-1980)): no conclusion; mutagenic call (Species/Cell Type: Human, Assay Type: Sister-chromatid exchange (SCE) in vitro, Assay Code: SC1T, Evaluation Type: Evaluation B (Post-1980)): no conclusion

Question: Which results are given for `Nc1nc(NO)c2[nH]cnc2n1`?
Answer: mutagenic call (Species/Cell Type: Escherichia coli WP2, Assay Type: Tryptophan reverse gene mutation, Assay Code: WP2T, Evaluation Type: Evaluation A (Pre-1980)): no conclusion; mutagenic call (Species/Cell Type: Escherichia coli WP2 UVRA, Assay Type: Tryptophan reverse gene mutation, Assay Code: WPUT, Evaluation Type: Evaluation A (Pre-1980)): no conclusion; mutagenic call [2]: active; positive

Question: How did the mutagenic call (Species/Cell Type: Salmonella typhimurium, Assay Type: Forward and reverse gene mutation, host-mediated assay, Assay Code: HMA-, Evaluation Type: Evaluation A (Pre-1980)) turn out when `CCCCSC(=Nc1cccnc1)SCc1ccc(C(C)(C)C)cc1` was run?
Answer: inactive; negative

Question: `COc1ccc2nc3cc(Cl)ccc3c(NCCNCCCl)c2c1` was tested. Which mutagenic call [1] did it give?
Answer: active; positive

Question: For `OOC1CCCc2ccccc21` (configuration not stated), which mutagenic call (Species/Cell Type: Saccharomyces cerevisiae, Assay Type: Mitotic recombination or gene conversion, Assay Code: YEC-, Evaluation Type: Evaluation A (Pre-1980)) is on record?
Answer: inactive; negative

Question: Which mutagenic call (Species/Cell Type: Allium cepa, Assay Type: Chromosome aberrations, Assay Code: ALC-, Evaluation Type: Evaluation A (Pre-1980)) does the source give for `Nc1ccc(O)c(N)c1` here?
Answer: inactive; negative

Question: How did the mutagenic call [7] turn out when `O[C@@H]1C=Cc2c(ccc3cc4ccccc4cc23)[C@H]1O` was run?
Answer: active; positive

Question: And the call [8]?
Answer: active; positive

Question: What about the mutagenic call [6] of the same molecule?
Answer: active; positive

Question: What about the mutagenic call [4] of the same molecule?
Answer: active; positive

Question: `CCC(=O)O` was tested. Which mutagenic call (Species/Cell Type: Mammalian polychromatic erythrocytes, Assay Type: Micronucleus test, chromosome aberrations, Assay Code: MNT-, Evaluation Type: Evaluation B (Post-1980)) did it give?
Answer: inactive; negative

Question: For `Oc1ccc(Cl)cc1Cl`, which mutagenic call [5] is on record?
Answer: no conclusion

Question: `Cc1cc(C(=C2C=CC(=Nc3ccc(S(=O)(=O)O)cc3)C=C2)c2ccc(Nc3ccc(S(=O)(=O)O)cc3)cc2)cc(S(=O)(=O)O)c1N` was tested. Which mutagenic call (Species/Cell Type: Bacillus subtilis (H17 vs M45), Assay Type: Rec-assay, spot test, DNA effects (bacterial DNA repair), Assay Code: REWT, Evaluation Type: Evaluation A (Pre-1980)) did it give?
Answer: no conclusion

Question: For `Nc1nccc2c1[nH]c1ccccc12`, which mutagenic call [9] is on record?
Answer: active; positive

Question: And the mutagenic call (Species/Cell Type: Nonhuman, Assay Type: Sister-chromatid exchange (SCE) in vitro, Assay Code: SC2T, Evaluation Type: Evaluation B (Post-1980))?
Answer: no conclusion

Question: `CC(=O)OC[C@H]1OC(OC(C)=O)[C@H](NC(=O)N(C)N=O)[C@@H](OC(C)=O)[C@@H]1OC(C)=O` (some centres not stated) was tested. Which mutagenic call [7] did it give?
Answer: active; positive

Question: Which results are given for `Cc1c2ccccc2c(C)c2c1ccc1ccc(O)cc12`?
Answer: mutagenic call (Species/Cell Type: Chinese hamster lung (V79) cells, Assay Type: Forward gene mutation at the HPRT or ouabain locus, Assay Code: V79-*, Activation: With metabolic activation, Evaluation Type: Evaluation A (Pre-1980)): inactive; negative; call (Species/Cell Type: Nonhuman, Assay Code: CCGT, Evaluation Type: Evaluation A (Pre-1980)): no conclusion

Question: For `CS(=O)(=O)OCCNP1(=O)OCCCN1CCCl` (configuration not stated), which mutagenic call (Species/Cell Type: Mammalian polychromatic erythrocytes, Assay Type: Micronucleus test, chromosome aberrations, Assay Code: MNT+U, Dose Response: Unconfirmed positive response, Evaluation Type: Evaluation A (Pre-1980)) is on record?
Answer: active; positive

Question: Which results are given for `CNC(=O)Oc1ccc(C)c(C)c1`?
Answer: mutagenic call (Species/Cell Type: Bacillus subtilis (H17 vs M45T), Assay Type: Rec-assay, spot test, DNA effects (bacterial DNA repair), Assay Code: REX-, Evaluation Type: Evaluation A (Pre-1980)): inactive; negative; mutagenic call [10]: inactive; negative

Question: Which results are given for `COc1ccc(N=NN(C)C)cc1`?
Answer: mutagenic call (Species/Cell Type: Drosophila melanogaster, Assay Type: Sex-linked recessive lethal gene mutation, Assay Code: SRL+, Evaluation Type: Evaluation A (Pre-1980)): active; positive; mutagenic call [3]: active; positive

Question: Which mutagenic call (Species/Cell Type: Human diploid fibroblasts, Assay Type: Unscheduled DNA synthesis (UDS) in vitro, DNA effects, Assay Code: UDH+, Evaluation Type: Evaluation A (Pre-1980)) does the source give for `CC(=O)N(O)c1ccc2c(ccc3ccccc32)c1` here?
Answer: active; positive

Question: And the call [8]?
Answer: active; positive

Question: Which mutagenic call (Species/Cell Type: Mammalian cell culture, nonhuman, Assay Type: Micronucleus test in vitro, chromosome aberrations, Assay Code: MN&+, Evaluation Type: Evaluation A (Pre-1980)) does the source give for `Cc1cc2cc3cc(C)c(N)cc3nc2cc1N` here?
Answer: active; positive

Question: And the mutagenic call [3]?
Answer: active; positive

Question: With `O=C(Nc1ccc([N+](=O)[O-])cc1Cl)c1cc(Cl)ccc1O` as the molecule, how does the mutagenic call (Species/Cell Type: Human lymphocytes, Assay Type: Sister-chromatid exchange (SCE) in vitro, Assay Code: SCL+D, Dose Response: With dose response, Evaluation Type: Evaluation B (Post-1980)) read?
Answer: active; positive

Question: What about the mutagenic call (Species/Cell Type: Human lymphocytes, Assay Type: Sister-chromatid exchange (SCE) in vivo, Assay Code: SCY+, Evaluation Type: Evaluation B (Post-1980)) of the same molecule?
Answer: active; positive

Question: And the mutagenic call [9]?
Answer: active; positive

Question: With `O=[N+]([O-])c1ccc(-c2ncn[nH]2)o1` as the molecule, how does the mutagenic call [10] read?
Answer: inactive; negative

Question: And the mutagenic call (Species/Cell Type: Escherichia coli WP2 UVRA, Assay Type: Tryptophan reverse gene mutation, Assay Code: WPU+, Evaluation Type: Evaluation A (Pre-1980))?
Answer: active; positive
